Measurements as given in PubChem BioAssay (NCI).
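Five compound concentrations were applied to cells in 96-well plates for 48 hours; endpoints were derived by simple linear interpolation of the resulting dose-response curve. The concentration for 50% growth inhibition is given as GI50. Definition used: TGI = concentration required for complete inhibition of growth.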

Tests used:
Experiment in all cases: NCI tumour cell line growth inhibition, 48 h
ACHN renal = system: ACHN renal
COLO 205 colon = system: COLO 205 colon
MALME-3M melanoma = system: MALME-3M melanoma
MCF7 breast = system: MCF7 breast
RXF 393 renal = system: RXF 393 renal
SK-MEL-5 melanoma = system: SK-MEL-5 melanoma
SNB-19 CNS = system: SNB-19 CNS
TK-10 renal = system: TK-10 renal
U251 CNS = system: U251 CNS
UACC-62 melanoma = system: UACC-62 melanoma

Row | SMILES | GI50 (ACHN renal) [µM] | TGI (ACHN renal) [µM] | GI50 (COLO 205 colon) [µM] | TGI (COLO 205 colon) [µM] | GI50 (MALME-3M melanoma) [µM] | TGI (MALME-3M melanoma) [µM] | GI50 (MCF7 breast) [µM] | TGI (MCF7 breast) [µM] | GI50 (RXF 393 renal) [µM] | TGI (RXF 393 renal) [µM] | GI50 (SK-MEL-5 melanoma) [µM] | TGI (SK-MEL-5 melanoma) [µM] | GI50 (SNB-19 CNS) [µM] | TGI (SNB-19 CNS) [µM] | GI50 (TK-10 renal) [µM] | TGI (TK-10 renal) [µM] | GI50 (U251 CNS) [µM] | TGI (U251 CNS) [µM] | GI50 (UACC-62 melanoma) [µM] | TGI (UACC-62 melanoma) [µM]
1 | CN(C)c1nc2ccccc2c2c1c1c(n2Cc2ccccc2)-c2ccccc2C1=O | > 100 | > 100 | > 100 | > 100 | > 100 | > 100 | 71.4 | > 100 | > 100 | > 100 | 39.1 | > 100 | > 100 | > 100 | > 100 | > 100 | > 100 | > 100 | > 100 | > 100
2 | Cc1nc2ccc(NC(=O)CCNC(=O)CCCc3ccc(CC(C(=O)O)C(=O)O)cc3)cc2s1 | > 100 | > 100 | > 100 | > 100 | > 100 | > 100 | > 100 | > 100 | > 100 | > 100 | > 100 | > 100 | > 100 | > 100 | > 100 | > 100 | > 100 | > 100 | > 100 | > 100
3 | Cn1cc(-c2ccc3nnc(Sc4ccc5ncccc5c4)n3n2)cn1 | 54.1 | > 100 | 30.4 | > 100 | > 100 | > 100 | 97.5 | > 100 | 26.6 | > 100 | > 74.3 | > 100 | 47.3 | > 100 | 40.7 | > 100 | 28.5 | > 100 | > 100 | > 100
4 | COC(=O)C1C(O)C(C)C(O)C(C)C=C(C)C2=C3C(=C(C)C(=O)c4c(O)c(c(C)c(OC(C)=O)c43)NC(=O)C(C)=C/C=C\C(C)C(O)C(C)C1O)OCO2 (stereo not given) | – | > 100 | – | 63.6 | – | 38.5 | – | 58.7 | – | 89.8 | – | 39.4 | – | > 100 | – | > 100 | – | > 100 | – | 74.5
5 | COc1cc2c(cc1O)CC1c3c(cc(O)c(OC)c3-2)CCN1C (stereo not given) | – | > 100 | – | > 100 | – | > 100 | – | > 100 | – | > 100 | – | > 100 | – | > 100 | – | > 100 | – | > 100 | – | > 100
6 | O=C(Nn1c(-c2ccccc2)nc2ccccc2c1=O)c1ccccc1O | – | > 100 | – | > 100 | – | > 100 | – | > 100 | – | > 100 | – | 84.3 | – | > 100 | – | > 100 | – | > 100 | – | 77.2
7 | O=c1cc(N/N=C/c2ccc(F)cc2)c2cc(Cl)ccc2[nH]1 | 17.2 | 72.1 | 18.2 | 43.5 | 14.2 | 54 | 15.3 | > 100 | 23.7 | > 100 | 3.54 | 14.1 | 23.5 | > 100 | 47.1 | > 100 | 21.1 | 98.4 | 16.7 | > 100
8 | COc1ccc(-c2nc(-c3nc4ccc(F)cc4[nH]3)c3ccccn23)cc1 | 4.28 | 25.9 | 78.1 | > 100 | 5.32 | 27.1 | 6.15 | > 100 | 6.05 | 45.3 | 2.2 | 6.71 | 11.2 | 58.6 | 16.1 | 57.9 | 13.6 | 51.3 | 5.41 | 36.1
9 | C1CC2CN(CCCN3CCOCC3)C(C1)O2 (stereo not given) | – | > 100 | – | > 100 | – | > 100 | – | > 100 | – | > 100 | – | > 100 | – | > 100 | – | > 100 | – | > 100 | – | > 100
10 | Cc1cc(O)c(C2=NN(c3ccc(S(N)(=O)=O)cc3)C(c3ccc(Cl)cc3)C2)c(C)c1Cl (stereo not given) | 3.7 | 14.4 | 1.69 | 3.31 | 14.8 | 35.2 | 2.01 | 10.5 | 5.83 | 21.1 | 9.59 | 21.4 | 12.4 | 24.9 | 4.48 | 18.8 | 3.34 | 13.5 | 3.49 | 15.1
11 | COc1cc2c(cc1OCCCCCCN1CCN(CC(=O)Nc3ccc(Cl)cc3C(=O)c3ccccc3Cl)CC1)N=CC1CCCN1C2=O (stereo not given) | 0.3 | 0.765 | 0.154 | 0.314 | 0.185 | 0.361 | 0.153 | 0.321 | 0.168 | 0.324 | 0.513 | 0.942 | 0.244 | 0.632 | 0.497 | 1.17 | 0.258 | 0.725 | 0.408 | 0.975
12 | C1CC[N-]CC1.CC(=N\O)/C(C)=N/O.CC(=N\O)/C(C)=N/O.OC1[CH-]CCCC1.[Co+2] | 76.3 | > 100 | 19 | 34.5 | 18 | 40.8 | 38.7 | > 100 | 19.2 | 62.4 | 34.6 | > 100 | > 100 | > 100 | 39.8 | > 100 | 31 | > 100 | 18.1 | 41.2
13 | COC(=O)C1=C(C(=O)OC)C2(C)C=CC1O2 (stereo not given) | – | 18.7 | – | 32.6 | – | 9.26 | – | > 100 | – | 57.6 | – | 32.8 | – | > 100 | – | 8.24 | – | 31.9 | – | 31.9
